# From patent US9837801B2, “Gas-insulated medium or high-voltage electrical apparatus including carbon dioxide, oxygen, and heptafluoro-isobutyronitrile” (Alstom Technology Ltd., priority 2013, dated 2017)
# Test: Toxicity (LC50, lethal concentration 50%)
# Format: in vivo
# Excerpt: In addition, […], toxicity is further reduced by […], which classifies it in the field of gases considered to be “practically non-toxic” (toxicity classification 5, according to the Hodge and Sterner toxicity scale).
structure (smiles),measurement,setting,value
"N#CC(F)(C(F)(F)F)C(F)(F)F [Heptafluoroisobutyronitrile, 2,3,3,3-tetrafluoro-2-trifluoromethyl propanenitrile]",specific toxicity for humans,humans,no specific toxicity
same,"LC50 (lethal concentration, 50%)",pure heptafluoroisobutyronitrile,"greater than 15,000 ppm"
